What follows are compounds tested on parasites (ring stage parasites, parasite growth) (assay: Parasite LDH growth assay (Parasite Assay), antiparasite potency). Settings: 72 h, 72 hours growth, LDH readout; Table 3.
Format: cell-based
Outline: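 Ring-stage culture was adjusted to 0.7% parasitemia and 2% haematocrit in bicarbonate-buffered RPMI-Hepes with heat-inactivated human serum and 0.5% albumax, then added to compound. Plates were incubated 72 h at 37 °C in gassed humidified boxes, frozen at −80 °C overnight and thawed, and growth was read by LDH assay.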
`COCC[C@H]([C@@H]1C[C@H]1C(=O)N[C@@H]1CC(C)(C)Oc2c(C(F)(F)F)ccc(F)c21)N1C(=N)NC(C)(C)CC1=O` [Example 114A] was tested, and the EC50 was 89 nM.
For `COCC[C@H]([C@@H]1C[C@H]1C(=O)N[C@H]1CC(C)(C)Oc2c(C(F)(F)F)ccc(F)c21)N1C(=N)NC(C)(C)CC1=O` [Example 114B], the EC50 was 5.1 nM.
Compound `CC1(C)CC(=O)N([C@H](c2cccnc2)[C@@H]2C[C@H]2C(=O)N[C@@H]2CC(C)(C)Oc3c(C(F)(F)F)ccc(F)c32)C(=N)N1` [Example 115A] has an EC50 of 6.6 nM.
`CC1(C)CC(=O)N([C@H](c2cccnc2)[C@@H]2C[C@H]2C(=O)N[C@H]2CC(C)(C)Oc3c(C(F)(F)F)ccc(F)c32)C(=N)N1` [Example 115B] gave an EC50 of 1 nM.
`COCC[C@H]([C@@H]1C[C@H]1C(=O)N[C@H]1CC(C)(C)Oc2cccc(Cl)c21)N1C(=N)NC(C)(C)CC1=O` [Example 116A] gave an EC50 of 0.8 nM.
For `COCC[C@H]([C@@H]1C[C@H]1C(=O)N[C@@H]1CC(C)(C)Oc2cccc(Cl)c21)N1C(=N)NC(C)(C)CC1=O` [Example 116B], the EC50 was 18 nM.
In the case of `CC1(C)CC(=O)N(C[C@@H]2C[C@H]2C(=O)N[C@H]2CC(C)(C)Oc3cccc(OC(F)(F)F)c32)C(=N)N1` [Example 118], the EC50 is reported as 63 nM.
Compound `CC1(C)CC(=O)N(C[C@@H]2C[C@H]2C(=O)N[C@H]2CC(C)(C)Oc3cccc(Cl)c32)C(=N)N1` [Example 119] has an EC50 of 26 nM.
With `CC1(C)CC(=O)N([C@H](c2cccnc2)[C@@H]2C[C@H]2C(=O)N[C@H]2CC(C)(C)Oc3ccc(Cl)cc32)C(=N)N1` [Example 120] the EC50 was 1 nM.
Work on `CC1(C)CC(=O)N([C@H](c2cccnc2)[C@@H]2C[C@H]2C(=O)NC2CC(C)(C)Oc3c(Cl)cccc32)C(=N)N1` (stereo partly drawn) [Example 121A] yielded an EC50 of 2.5 nM.
For `CC1(C)CC(=O)N([C@H](c2cccnc2)[C@@H]2C[C@H]2C(=O)NC2CC(C)(C)Oc3c(F)cc(F)cc32)C(=N)N1` (stereo partly drawn) [Example 122A], the EC50 was 2.3 nM.
`CC[C@]1(C)CC(=O)N([C@H](CCOC)[C@@H]2C[C@H]2C(=O)N[C@H]2CC(C)(C)Oc3ccc(C)cc32)C(=N)N1` [Example 123] was tested, and the EC50 was 2 nM.
With `CC[C@]1(C)CC(=O)N([C@H](CCOC)[C@@H]2C[C@H]2C(=O)N[C@H]2CC(C)(C)Oc3ccc(Cl)cc32)C(=N)N1` [Example 124] the EC50 was 0.8 nM.
For `CC1(C)CC(=O)N(C[C@@H]2C[C@H]2C(=O)NC2CC(C)(C)Oc3ccc(OC(F)(F)F)cc32)C(=N)N1` (stereo partly drawn) [Example 125A], the EC50 was 231 nM.
For `COCC[C@H]([C@@H]1C[C@H]1C(=O)NC1CC(C)(C)Oc2ccc(OC(F)(F)F)cc21)N1C(=N)NC(C)(C)CC1=O` (stereo partly drawn) [Example 126A], the EC50 was 4.7 nM.
In the case of `Cc1ccc2c(c1)[C@@H](NC(=O)[C@@H]1C[C@H]1CN1C(=N)NC(C)(C)CC1=O)CC(C)(C)O2` [Example 128], the EC50 is reported as 280 nM.
With `CC[C@]1(C)CC(=O)N([C@H](CCOC)[C@@H]2C[C@H]2C(=O)NC2CC(C)(C)Oc3ccc(OC(F)(F)F)cc32)C(=N)N1` (stereo partly drawn) [Example 129A] the EC50 was 1.3 nM.
With `COCC[C@H]([C@@H]1C[C@H]1C(=O)NC1CC2(CCC2)Oc2ccccc21)N1C(=N)NC(C)(C)CC1=O` (stereo partly drawn) [Example 131A] the EC50 was 6.8 nM.
With `COCC[C@H]([C@@H]1C[C@H]1C(=O)N[C@H]1CC(C)(C)Oc2ccc(C)cc21)N1C(=N)NC(C)(C)CC1=O` [Example 132] the EC50 was 6.7 nM.
In the case of `COCC[C@H]([C@@H]1C[C@H]1C(=O)N[C@@H]1CC(C)(C)Oc2cc(OC(F)(F)F)ccc21)N1C(=N)NC(C)(C)CC1=O` [Example 134A], the EC50 is reported as 71 nM.
Compound `COCC[C@H]([C@@H]1C[C@H]1C(=O)N[C@H]1CC(C)(C)Oc2cc(OC(F)(F)F)ccc21)N1C(=N)NC(C)(C)CC1=O` [Example 134B] has an EC50 of 25 nM.
`CC1(C)CC(=O)N(C[C@@H]2C[C@H]2C(=O)N[C@H]2CC3(CCC3)Oc3ccccc32)C(=N)N1` [Example 135] showed an EC50 of 190 nM.
In the case of `Cc1cc2c(cc1Cl)[C@@H](NC(=O)[C@@H]1C[C@H]1CN1C(=N)NC(C)(C)CC1=O)CC(C)(C)O2` [Example 136], the EC50 is reported as 160 nM.
In the case of `COCC[C@H]([C@@H]1C[C@H]1C(=O)N[C@@H]1CC(C)(C)Oc2cc(C)c(Cl)cc21)N1C(=N)NC(C)(C)CC1=O` [Example 137A], the EC50 is reported as 12 nM.
With `COCC[C@H]([C@@H]1C[C@H]1C(=O)N[C@H]1CC(C)(C)Oc2cc(C)c(Cl)cc21)N1C(=N)NC(C)(C)CC1=O` [Example 137B] the EC50 was 6.4 nM.
`COCC[C@H]([C@@H]1C[C@H]1C(=O)N[C@H]1CC(C)(C)Oc2cc(C)c(C)cc21)N1C(=N)NC(C)(C)CC1=O` [Example 138A] was tested, and the EC50 was 7.4 nM.
`COCC[C@H]([C@@H]1C[C@H]1C(=O)N[C@@H]1CC(C)(C)Oc2cc(C)c(C)cc21)N1C(=N)NC(C)(C)CC1=O` [Example 138B] showed an EC50 of 18 nM.
For `CC1C[C@H](NC(=O)[C@@H]2C[C@H]2CN2C(=N)NC(C)(C)CC2=O)c2cc(F)ccc2O1` (stereo partly drawn) [Example 139A], the EC50 was 99 nM.
In the case of `CC1(C)CC(=O)N(C[C@@H]2C[C@H]2C(=O)N[C@H]2CC(C3CC3)Oc3ccccc32)C(=N)N1` (stereo partly drawn) [Example 140A], the EC50 is reported as 220 nM.

Same assay, conditions: 72 h, 72 hours growth, LDH readout; Table 4 (unit inferred)
For `CCC1(CC)CC(=O)N([C@H](CCOC)[C@@H]2C[C@H]2C(=O)N[C@@H]2CC(C)(C)Oc3ccccc32)C(=N)N1` [Example 141], the EC50 was 4.7 nM.
`CCC1(CC)CC(=O)N([C@H](CCOC)[C@@H]2C[C@H]2C(=O)N[C@H]2c3ccccc3OC(C)(C)[C@@H]2O)C(=N)N1` [Example 144] gave an EC50 of 165 nM.
`CCC1(CC)CC(=O)N([C@H](CCOC)[C@@H]2C[C@H]2C(=O)N[C@@H]2c3ccccc3OC(C)(C)[C@H]2O)C(=N)N1` [Example 145] showed an EC50 of 8.4 nM.
Work on `CCC1(CC)CC(=O)N([C@H](CCOC)[C@@H]2C[C@H]2C(=O)N[C@H]2CC(C)(C)Oc3ccc(Cl)cc32)C(=N)N1` [Example 146] yielded an EC50 of 1.1 nM.
Compound `CCC1(CC)CC(=O)N([C@H](CCOC)[C@@H]2C[C@H]2C(=O)NC2CC(C)(C)Oc3c(Cl)cccc32)C(=N)N1` (stereo partly drawn) [Example 148A] has an EC50 of 2.7 nM.
Compound `CCC1(CC)CC(=O)N([C@H](CCOC)[C@@H]2C[C@H]2C(=O)NC2CC(C)(C)Oc3cccc(Cl)c32)C(=N)N1` (stereo partly drawn) [Example 149A] has an EC50 of 1 nM.
For `CCC1(CC)CC(=O)N([C@H](CCOC)[C@@H]2C[C@H]2C(=O)N[C@@H]2c3cc(Cl)ccc3OC(C)(C)[C@H]2O)C(=N)N1` [Example 150], the EC50 was 3.9 nM.

Same assay, conditions: 72 hours growth, LDH readout; Table 3
For `CC1(C)CC(=O)N([C@H](c2cccnc2)[C@@H]2C[C@H]2C(=O)NC2CC(C)(C)Oc3c(Cl)cccc32)C(=N)N1` (stereo partly drawn) [Example 121B], the EC50 was 2 nM.
With `CC1(C)CC(=O)N(C[C@@H]2C[C@H]2C(=O)NC2CC(C)(C)Oc3ccc(OC(F)(F)F)cc32)C(=N)N1` (stereo partly drawn) [Example 125B] the EC50 was 160 nM.
With `COCC[C@H]([C@@H]1C[C@H]1C(=O)NC1CC(C)(C)Oc2ccc(OC(F)(F)F)cc21)N1C(=N)NC(C)(C)CC1=O` (stereo partly drawn) [Example 126B] the EC50 was 8.4 nM.
`CC[C@]1(C)CC(=O)N([C@H](CCOC)[C@@H]2C[C@H]2C(=O)NC2CC(C)(C)Oc3ccc(OC(F)(F)F)cc32)C(=N)N1` (stereo partly drawn) [Example 129B] gave an EC50 of 2.5 nM.
Compound `COCC[C@H]([C@@H]1C[C@H]1C(=O)NC1CC2(CCC2)Oc2ccccc21)N1C(=N)NC(C)(C)CC1=O` (stereo partly drawn) [Example 131B] has an EC50 of 6.1 nM.
For `CC1C[C@H](NC(=O)[C@@H]2C[C@H]2CN2C(=N)NC(C)(C)CC2=O)c2cc(F)ccc2O1` (stereo partly drawn) [Example 139B], the EC50 was 130 nM.
`CC1(C)CC(=O)N(C[C@@H]2C[C@H]2C(=O)N[C@H]2CC(C3CC3)Oc3ccccc32)C(=N)N1` (stereo partly drawn) [Example 140B] showed an EC50 of 280 nM.

Same assay, conditions: 72 hours growth, LDH readout; Table 4 (unit inferred)
Work on `CCC1(CC)CC(=O)N([C@H](CCOC)[C@@H]2C[C@H]2C(=O)NC2CC(C)(C)Oc3c(Cl)cccc32)C(=N)N1` (stereo partly drawn) [Example 148B] yielded an EC50 of 1.9 nM.
Compound `CCC1(CC)CC(=O)N([C@H](CCOC)[C@@H]2C[C@H]2C(=O)NC2CC(C)(C)Oc3cccc(Cl)c32)C(=N)N1` (stereo partly drawn) [Example 149B] has an EC50 of 1.2 nM.
